Like-named read-outs stand apart in the source and are kept apart here.
Key:
EGFR (L858R) [1] = target: T1, EGFR (L858R) (Homo sapiens (Human), UniProt P00533, L858R); assay: KinaseSeeker rabbit reticulocyte lysate competition binding assay (IC50)
Experimental: (§1) Luminescence readout translates into a highly sensitive and robust assay with low background and minimal interference from test compounds.
(§2) 10 mM stock solutions of test compounds were serially diluted in DMSO to make assay stocks. Prior to initiating IC50 determinations, the test compounds were evaluated for false positive against split-luciferase.
(§3) For kinase assays, Cfluc-kinase was translated along with Fos-Nfluc using a cell-free system (rabbit reticulocyte lysate) at 30° C. for 90 min. 24 uL aliquot of this lysate containing either 1 uL of DMSO (for no-inhibitor control) or compound solution in DMSO was incubated for 30 minutes at room temperature followed by 1 hour in presence of a kinase specific probe. 80 uL of luciferin assay reagent was added to each solution and luminescence was immediately measured on a luminometer.
(§4) The % Activity was plotted against compound concentration and the IC50 was determined for each compound using a 7-point curve (Jester, B. W.; et. al. J. Am. Chem. Soc. 2010, 132, 11727-11735. Jester, B. W.; et. al. J. Med. Chem. 2012, 55, 1526-1537).

EGFR L858R/T790M = EGFR L858R/T790M (Homo sapiens (Human), UniProt P00533, L858R/T790M); assay: KINOMEscan competition binding assay (Kd); settings: KINOMEscan binding constant; read-out: Kd Activity Level (EGFR L858R/T790M)
Experimental: (§5) The assay is performed by combining three components: DNA-tagged kinase; immobilized ligand; and a test compound. The ability of the test compound to compete with the immobilized ligand is measured via quantitative PCR of the DNA tag.
(§6) For most assays, kinase-tagged T7 phage strains were prepared in an E. coli host derived from the BL21 strain. E. coli were grown to log-phase and infected with T7 phage and incubated with shaking at 32° C. until lysis. The lysates were centrifuged and filtered to remove cell debris. The remaining kinases were produced in HEK-293 cells and subsequently tagged with DNA for qPCR detection. Streptavidin-coated magnetic beads were treated with biotinylated small molecule ligands for 30 minutes at room temperature to generate affinity resins for kinase assays. The liganded beads were blocked with excess biotin and washed with blocking buffer (SeaBlock (Pierce), 1% BSA, 0.05% Tween 20, 1 mM DTT) to remove unbound ligand and to reduce nonspecific binding. […] All reactions were performed in polystyrene 96-well plates in a final volume of 0.135 ml. […] The kinase concentration in the eluates was measured by qPCR.

EGFR WT (wild type EGFR) = EGFR WT (wild type EGFR) (Homo sapiens (Human), UniProt P00533); assay: KINOMEscan competition binding assay (Kd); settings: read-out: Kd Activity Level (EGFR WT)
Sequence of EGFR WT (wild type EGFR) (P00533 25-1210): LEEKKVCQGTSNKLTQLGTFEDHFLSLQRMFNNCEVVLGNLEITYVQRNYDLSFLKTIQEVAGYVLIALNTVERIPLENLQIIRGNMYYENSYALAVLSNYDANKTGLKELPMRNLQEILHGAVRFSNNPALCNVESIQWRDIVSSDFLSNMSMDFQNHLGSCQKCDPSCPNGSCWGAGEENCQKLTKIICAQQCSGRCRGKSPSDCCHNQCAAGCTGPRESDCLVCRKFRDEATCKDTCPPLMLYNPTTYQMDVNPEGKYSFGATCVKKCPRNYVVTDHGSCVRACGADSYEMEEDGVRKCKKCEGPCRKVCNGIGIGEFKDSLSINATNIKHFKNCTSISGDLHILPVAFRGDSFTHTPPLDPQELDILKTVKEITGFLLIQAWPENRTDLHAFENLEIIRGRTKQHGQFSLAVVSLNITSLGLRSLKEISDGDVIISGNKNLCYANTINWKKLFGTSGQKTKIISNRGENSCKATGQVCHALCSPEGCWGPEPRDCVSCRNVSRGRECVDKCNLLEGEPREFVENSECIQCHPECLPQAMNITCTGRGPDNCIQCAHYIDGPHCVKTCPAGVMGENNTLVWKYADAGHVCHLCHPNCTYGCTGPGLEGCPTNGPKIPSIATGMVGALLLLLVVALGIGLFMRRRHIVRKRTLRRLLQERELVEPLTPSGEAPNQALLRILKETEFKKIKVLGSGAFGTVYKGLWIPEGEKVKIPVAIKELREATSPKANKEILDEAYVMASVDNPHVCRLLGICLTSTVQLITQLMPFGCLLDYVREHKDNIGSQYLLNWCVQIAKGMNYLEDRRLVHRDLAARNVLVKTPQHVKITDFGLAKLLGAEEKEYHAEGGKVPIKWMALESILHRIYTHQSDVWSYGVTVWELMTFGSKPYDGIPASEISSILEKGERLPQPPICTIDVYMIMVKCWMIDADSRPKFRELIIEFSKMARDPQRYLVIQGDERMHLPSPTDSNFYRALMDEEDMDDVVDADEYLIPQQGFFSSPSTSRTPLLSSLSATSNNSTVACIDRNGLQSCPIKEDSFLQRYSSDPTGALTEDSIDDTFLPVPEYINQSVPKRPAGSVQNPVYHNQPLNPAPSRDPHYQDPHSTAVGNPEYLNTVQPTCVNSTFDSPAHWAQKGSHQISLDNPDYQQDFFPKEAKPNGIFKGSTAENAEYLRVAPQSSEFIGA
Experimental: as §5, §6

EGFR S752-I759del = EGFR S752-I759del (Homo sapiens (Human), UniProt P00533, DEL752-759); assay: KINOMEscan competition binding assay (Kd); settings: KINOMEscan binding constant; read-out: Kd Activity Level (EGFR S752-I759del)
Sequence of EGFR S752-I759del (P00533 other isoform, or with tags, fused parts or gaps del 1-668/del 752-759/del 1012-1210 limits assumed): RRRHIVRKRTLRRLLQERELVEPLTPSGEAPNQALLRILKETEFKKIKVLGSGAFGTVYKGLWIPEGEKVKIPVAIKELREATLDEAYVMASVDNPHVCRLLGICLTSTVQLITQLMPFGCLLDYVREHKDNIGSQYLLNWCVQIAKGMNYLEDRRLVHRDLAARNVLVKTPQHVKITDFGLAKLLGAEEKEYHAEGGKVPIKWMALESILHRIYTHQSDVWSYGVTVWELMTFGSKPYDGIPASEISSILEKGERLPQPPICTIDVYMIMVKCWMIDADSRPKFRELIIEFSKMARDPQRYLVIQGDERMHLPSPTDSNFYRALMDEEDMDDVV
Experimental: as §5, §6

HER2 = HER2 (Homo sapiens (Human), UniProt P04626); assay: KinaseSeeker rabbit reticulocyte lysate competition binding assay (IC50)
Sequence of HER2 (P04626 23-1255): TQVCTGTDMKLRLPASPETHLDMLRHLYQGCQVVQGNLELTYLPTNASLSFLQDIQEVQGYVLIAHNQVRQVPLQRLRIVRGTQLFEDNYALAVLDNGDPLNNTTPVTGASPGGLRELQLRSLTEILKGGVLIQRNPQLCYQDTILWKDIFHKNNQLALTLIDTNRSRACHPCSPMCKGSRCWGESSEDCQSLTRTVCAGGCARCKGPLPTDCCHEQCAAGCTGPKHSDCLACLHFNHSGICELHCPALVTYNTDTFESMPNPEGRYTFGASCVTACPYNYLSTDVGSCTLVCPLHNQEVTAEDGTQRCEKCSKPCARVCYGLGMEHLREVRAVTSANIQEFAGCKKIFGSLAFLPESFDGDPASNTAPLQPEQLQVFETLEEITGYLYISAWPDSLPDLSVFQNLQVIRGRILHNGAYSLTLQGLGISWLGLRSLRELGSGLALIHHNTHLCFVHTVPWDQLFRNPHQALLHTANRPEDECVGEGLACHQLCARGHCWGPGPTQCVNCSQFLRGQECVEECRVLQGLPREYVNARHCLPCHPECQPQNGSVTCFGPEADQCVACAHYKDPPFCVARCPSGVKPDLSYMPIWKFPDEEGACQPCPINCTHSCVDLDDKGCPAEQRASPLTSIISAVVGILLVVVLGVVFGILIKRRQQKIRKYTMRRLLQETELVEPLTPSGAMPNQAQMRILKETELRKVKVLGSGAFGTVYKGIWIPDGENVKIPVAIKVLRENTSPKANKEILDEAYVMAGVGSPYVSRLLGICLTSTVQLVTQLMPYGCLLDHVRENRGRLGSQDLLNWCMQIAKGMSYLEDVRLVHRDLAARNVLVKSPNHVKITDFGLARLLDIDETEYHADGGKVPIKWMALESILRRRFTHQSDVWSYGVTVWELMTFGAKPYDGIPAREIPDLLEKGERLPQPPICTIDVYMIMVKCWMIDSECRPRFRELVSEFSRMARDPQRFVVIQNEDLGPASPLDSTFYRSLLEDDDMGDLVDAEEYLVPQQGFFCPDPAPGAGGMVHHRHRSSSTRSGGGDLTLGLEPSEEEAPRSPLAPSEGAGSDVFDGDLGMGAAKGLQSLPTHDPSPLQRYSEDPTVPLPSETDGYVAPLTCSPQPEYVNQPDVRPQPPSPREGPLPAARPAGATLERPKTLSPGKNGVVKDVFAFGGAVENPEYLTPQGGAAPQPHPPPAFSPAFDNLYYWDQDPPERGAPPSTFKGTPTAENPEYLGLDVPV
Experimental: as §1, §2, §3, §4

EGFR (L858R) [2] = target: T1, EGFR (L858R); assay: KINOMEscan competition binding assay (Kd); settings: read-out: Kd Activity Level (EGFR L858R)
Experimental: as §5, §6

EGFR WT = EGFR WT (Homo sapiens (Human), UniProt P00533); assay: KinaseSeeker rabbit reticulocyte lysate competition binding assay (IC50)
Experimental: as §1, §2, §3, §4

EGFR E746-A750del = EGFR E746-A750del (Homo sapiens (Human), UniProt P00533, DEL746-750); assay: KINOMEscan competition binding assay (Kd); settings: KINOMEscan binding constant; read-out: Kd Activity Level (EGFR E746-A750del)
Experimental: as §5, §6

[3] = read-out: IC50 Activity level EGFR L858R, KinaseSeeker, Table 18

T1 sequence (P00533 25-1210 L858R): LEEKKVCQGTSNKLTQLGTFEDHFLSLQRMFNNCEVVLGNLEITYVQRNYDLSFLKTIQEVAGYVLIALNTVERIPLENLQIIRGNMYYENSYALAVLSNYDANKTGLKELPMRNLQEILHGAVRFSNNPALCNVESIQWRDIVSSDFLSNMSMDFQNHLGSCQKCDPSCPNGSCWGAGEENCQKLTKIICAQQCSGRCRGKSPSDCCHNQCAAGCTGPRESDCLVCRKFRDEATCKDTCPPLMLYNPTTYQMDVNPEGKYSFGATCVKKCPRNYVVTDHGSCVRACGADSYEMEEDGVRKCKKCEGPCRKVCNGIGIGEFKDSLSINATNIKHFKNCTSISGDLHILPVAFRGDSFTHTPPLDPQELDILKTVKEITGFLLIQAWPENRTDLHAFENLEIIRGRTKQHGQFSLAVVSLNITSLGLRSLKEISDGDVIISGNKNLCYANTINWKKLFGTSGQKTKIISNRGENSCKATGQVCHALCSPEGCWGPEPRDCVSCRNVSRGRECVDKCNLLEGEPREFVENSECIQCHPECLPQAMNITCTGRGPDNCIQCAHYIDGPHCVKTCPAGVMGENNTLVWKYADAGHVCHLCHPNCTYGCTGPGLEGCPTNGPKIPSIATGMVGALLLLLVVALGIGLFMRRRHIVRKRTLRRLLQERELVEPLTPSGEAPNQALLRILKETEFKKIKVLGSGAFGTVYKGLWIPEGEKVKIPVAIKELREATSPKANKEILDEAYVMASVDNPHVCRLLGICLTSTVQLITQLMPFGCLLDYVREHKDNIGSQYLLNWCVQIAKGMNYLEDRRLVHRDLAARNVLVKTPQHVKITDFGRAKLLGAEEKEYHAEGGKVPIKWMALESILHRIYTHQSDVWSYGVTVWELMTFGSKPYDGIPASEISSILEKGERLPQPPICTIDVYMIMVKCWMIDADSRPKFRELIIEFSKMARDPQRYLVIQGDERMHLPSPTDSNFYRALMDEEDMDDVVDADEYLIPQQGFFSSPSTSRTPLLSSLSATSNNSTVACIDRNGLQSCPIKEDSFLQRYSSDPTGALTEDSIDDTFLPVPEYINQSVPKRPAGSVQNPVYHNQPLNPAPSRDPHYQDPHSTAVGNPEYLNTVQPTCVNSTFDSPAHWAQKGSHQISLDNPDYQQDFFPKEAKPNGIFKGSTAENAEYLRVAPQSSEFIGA
Sequence of EGFR L858R/T790M (P00533 25-1210 T790M/L858R): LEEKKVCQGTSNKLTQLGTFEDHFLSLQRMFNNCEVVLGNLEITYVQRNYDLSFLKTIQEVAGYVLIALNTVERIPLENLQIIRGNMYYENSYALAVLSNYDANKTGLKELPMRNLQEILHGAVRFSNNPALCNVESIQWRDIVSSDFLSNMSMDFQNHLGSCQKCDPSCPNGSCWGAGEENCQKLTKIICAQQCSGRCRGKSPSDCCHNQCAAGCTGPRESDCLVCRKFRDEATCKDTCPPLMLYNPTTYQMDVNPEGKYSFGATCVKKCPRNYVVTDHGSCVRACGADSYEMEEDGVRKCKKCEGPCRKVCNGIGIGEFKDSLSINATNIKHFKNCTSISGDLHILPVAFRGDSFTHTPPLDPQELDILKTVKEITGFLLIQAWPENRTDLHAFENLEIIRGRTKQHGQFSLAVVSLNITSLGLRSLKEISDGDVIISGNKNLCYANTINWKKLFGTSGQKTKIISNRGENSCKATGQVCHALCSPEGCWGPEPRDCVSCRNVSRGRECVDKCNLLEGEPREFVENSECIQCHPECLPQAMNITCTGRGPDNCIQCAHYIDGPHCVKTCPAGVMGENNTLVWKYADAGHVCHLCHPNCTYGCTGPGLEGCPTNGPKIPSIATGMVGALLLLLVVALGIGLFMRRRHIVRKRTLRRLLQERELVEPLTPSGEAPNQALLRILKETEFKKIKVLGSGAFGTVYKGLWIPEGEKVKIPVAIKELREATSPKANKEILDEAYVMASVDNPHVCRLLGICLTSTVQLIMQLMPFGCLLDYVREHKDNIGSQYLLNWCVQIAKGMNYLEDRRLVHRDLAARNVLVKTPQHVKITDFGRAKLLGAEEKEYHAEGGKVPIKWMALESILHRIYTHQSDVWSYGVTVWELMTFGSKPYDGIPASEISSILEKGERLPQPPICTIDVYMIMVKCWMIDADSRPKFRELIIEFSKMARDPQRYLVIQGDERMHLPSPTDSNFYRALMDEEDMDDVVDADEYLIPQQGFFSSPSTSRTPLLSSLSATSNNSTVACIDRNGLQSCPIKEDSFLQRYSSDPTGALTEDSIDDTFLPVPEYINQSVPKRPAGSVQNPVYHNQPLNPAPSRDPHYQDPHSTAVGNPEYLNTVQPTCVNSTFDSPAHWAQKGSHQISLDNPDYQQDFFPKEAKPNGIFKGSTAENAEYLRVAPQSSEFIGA

Row | IC50 (EGFR (L858R) [1]) [nM] | Kd (EGFR WT (wild type EGFR)) [nM] | IC50 (HER2) [nM] | Kd (EGFR (L858R) [2]) [nM] | IC50 (EGFR WT) [nM] | SMILES | also measured
1 | 1 to 99 | – | – | – | – | CCOc1cc2ncc(C#N)c(Nc3ccc(OCc4cccc(F)c4)c(Cl)c3)c2cc1NC(=O)CCCCC1CCSS1 (stereo not shown) [Example 44] | –
2 | 1000 to 10000 | – | – | – | – | CCOc1cc2ncc(C#N)c(Nc3ccc(F)c(Cl)c3)c2cc1NC(=O)CC(CCSCc1ccccc1)SCc1ccccc1 (stereo not shown) [Example 38, 3,5-Bis(benzylthio)-N-(4-((3-chloro-4-fluorophenyl)amino)-3-cyano-7-ethoxyquinolin-6-yl)pentanamide] | –
3 | – | 1 to 99 | – | 1 to 99 | – | CC1(C)OC[C@H](COc2cc3ncc(C#N)c(Nc4ccc(OCc5cccc(F)c5)c(Cl)c4)c3cc2NC(=O)C[C@@H]2CCSS2)O1 (single isomer, unassigned; isomer 1) [80 isomer 1] | –
4 | 1 to 99 | 1 to 99 | 100 to 999 | 1 to 99 | 100 to 999 | CCOc1cc2ncc(C#N)c(Nc3ccc(OCc4cccc(F)c4)c(Cl)c3)c2cc1NC(=O)C1CSSC1 [Example 36, N-(4-((3-Chloro-4-((3-fluorobenzyl)oxy)phenyl)amino)-3-cyano-7-ethoxyquinolin-6-yl)-1,2-dithiolane-4-carboxamide] | Kd (EGFR L858R/T790M): > 10 µM; Kd (EGFR S752-I759del): 1 to 99 nM; Kd (EGFR E746-A750del): 1 to 99 nM
5 | – | 1 to 99 | – | 1 to 99 | – | CC1(C)OC[C@H](COc2cc3ncc(C#N)c(Nc4ccc(OCc5cccc(F)c5)c(Cl)c4)c3cc2NC(=O)CC2CCSS2)O1 (single isomer, unassigned; isomer 2) [84 isomer 2] | –
6 | 100 to 999 | – | 100 to 999 | – | 100 to 999 | CCOc1cc2ncc(C#N)c(Nc3ccc(F)c(Cl)c3)c2cc1NC(=O)C1CSSC1 [Example 31, N-(4-((3-Chloro-4-fluorophenyl)amino)-3-cyano-7-ethoxyquinolin-6-yl)-1,2-dithiolane-4-carboxamide] | –
7 | – | 1 to 99 | – | 1 to 99 | – | CC(=O)SCC(CSC(C)=O)C(=O)Nc1cc2c(Nc3ccc(OCc4cccc(F)c4)c(Cl)c3)c(C#N)cnc2cc1OC[C@H](O)CO [Example 94, (R)—S,S′-(2-((4-((3-Chloro-4-((3-fluorobenzyl)oxy)phenyl)amino)-3-cyano-7-(2,3-dihydroxypropoxy)quinolin-6-yl)carbamoyl)propane-1,3-diyl)diethanethioate] | –
8 | 1 to 99 | – | – | – | 100 to 999 | CC(=O)SCC(CSC(C)=O)C(=O)Nc1ccc2ncc(C#N)c(Nc3ccc(OCc4cccc(F)c4)c(Cl)c3)c2c1 [Example 60, S,S′-(2-((4-((3-Chloro-4-((3-fluorobenzyl)oxy)phenyl)amino)-3-cyanoquinolin-6-yl)carbamoyl)propane-1,3-diyl)diethanethioate] | –
9 | 100 to 999 | – | 100 to 999 | – | 100 to 999 | CCOc1cc2ncc(C#N)c(Nc3ccc(F)c(Cl)c3)c2cc1NC(=O)CCCCC1CCSS1 (stereo not shown) [Example 42, N-(4-(3-Chloro-4-fluorophenylamino)-3-cyano-7-ethoxyquinolin-6-yl)-5-(1,2-dithiolan-3-yl)pentanamide] | –
10 | 1 to 99 | 1 to 99 | 100 to 999 | 1 to 99 | 100 to 999 | N#Cc1cnc2cc(OC[C@@H](O)CO)c(NC(=O)C[C@@H]3CCSS3)cc2c1Nc1ccc(OCc2cccc(F)c2)c(Cl)c1 [Example 85, N-(4-((3-Chloro-4-((3-fluorobenzyl)oxy)phenyl)amino)-3-cyano-7-((S)-2,3-dihydroxypropoxy)quinolin-6-yl)-2-(1,2-dithiolan-3R-yl)acetamide] | Kd (EGFR L858R/T790M): > 10 µM; Kd (EGFR S752-I759del): 1 to 99 nM; Kd (EGFR E746-A750del): 1 to 99 nM
11 | 1 to 99 | 1 to 99 | – | 1 to 99 | – | CCOc1cc2ncc(C#N)c(Nc3ccc(F)c(Cl)c3)c2cc1NC(=O)C1CCSS1 (stereo not shown) [Example 33, N-(4-((3-Chloro-4-fluorophenyl)amino)-3-cyano-7-ethoxyquinolin-6-yl)-1,2-dithiolane-3-carboxamide] | –
12 | – | 1 to 99 | – | 1 to 99 | – | CC1(C)OC[C@H](COc2cc3ncc(C#N)c(Nc4ccc(OCc5cccc(F)c5)c(Cl)c4)c3cc2NC(=O)C[C@H]2CCSS2)O1 (single isomer, unassigned; isomer 2) [80 isomer 2] | –
13 | 100 to 999 | – | 100 to 999 | – | 100 to 999 | COc1cc2ncnc(Nc3ccc(Oc4ccc(C)nc4)c(C)c3)c2cc1NC(=O)C1CSSC1 [Example 104, N-(7-Methoxy-4-((3-methyl-4-((6-methylpyridin-3-yl)oxy)phenyl)amino)quinazolin-6-yl)-1,2-dithiolane-4-carboxamide] | –
14 | – | 1 to 99 | – | 1 to 99 | – | CC1(C)OC[C@@H](COc2cc3ncc(C#N)c(Nc4ccc(OCc5cccc(F)c5)c(Cl)c4)c3cc2NC(=O)CC2CCSS2)O1 (single isomer, unassigned; isomer 1) [84 isomer 1] | –

The remaining lines, values behind:

Row | SMILES | IC50 (EGFR (L858R) [1]) [nM] | Kd (EGFR WT (wild type EGFR)) [nM] | IC50 (HER2) [nM] | Kd (EGFR (L858R) [2]) [nM] | IC50 (EGFR WT) [nM] | also measured
15 | N#Cc1cnc2cc(OC[C@H](O)CO)c(NC(=O)C[C@H]3CCSS3)cc2c1Nc1ccc(OCc2cccc(F)c2)c(Cl)c1 [Example 81, N-(4-((3-Chloro-4-((3-fluorobenzyl)oxy)phenyl)amino)-3-cyano-7-((R)-2,3-dihydroxypropoxy)quinolin-6-yl)-2-(1,2-dithiolan-3S-yl) acetamide] | 1 to 99 | 1 to 99 | 100 to 999 | 1 to 99 | 100 to 999 | Kd (EGFR L858R/T790M): > 10 µM; Kd (EGFR S752-I759del): 1 to 99 nM; Kd (EGFR E746-A750del): 1 to 99 nM
16 | CCOc1cc2ncc(C#N)c(Nc3ccc(F)c(Cl)c3)c2cc1NC(=O)CC1CCSS1 (stereo not shown) [Example 39, N-(4-((3-Chloro-4-fluorophenyl)amino)-3-cyano-7-ethoxyquinolin-6-yl)-2-(1,2-dithiolan-3-yl)acetamide] | 100 to 999 | – | – | – | – | –
17 | CCOc1cc2ncc(C#N)c(Nc3ccc(OCc4cccc(F)c4)c(Cl)c3)c2cc1NC(=O)C(CSC(C)=O)CSC(C)=O [Example 34] | 1 to 99 | 1 to 99 | 100 to 999 | 1 to 99 | 100 to 999 | Kd (EGFR L858R/T790M): > 10 µM; Kd (EGFR S752-I759del): 100 to 999 nM; Kd (EGFR E746-A750del): 100 to 999 nM
18 | COc1cc2ncnc(Nc3ccc(OCc4cccc(F)c4)c(Cl)c3)c2cc1NC(=O)C1CSSC1 [Example 110, N-(4-((3-Chloro-4-((3-fluorobenzyl)oxy)phenyl)amino)-7-methoxyquinazolin-6-yl)-1,2-dithiolane-4-carboxamide] | 1 to 99 | – | – | – | 1 to 99 | –
19 | COc1cc2ncnc(Nc3ccc(OCc4cccc(F)c4)c(Cl)c3)c2cc1NC(=O)C(CSC(C)=O)CSC(C)=O [Example 109, S,S′-(2-((4-((3-Chloro-4-((3-fluorobenzyl)oxy)phenyl)amino)-7-methoxyquinazolin-6-yl)carbamoyl)propane-1,3-diyl)diethanethioate] | 1 to 99 | – | – | – | 1 to 99 | –
20 | CC(=O)Nc1ccc2ncc(C#N)c(Nc3ccc(OCc4cccc(F)c4)c(Cl)c3)c2c1 [Example 58, N-(4-((3-Chloro-4-((3-fluorobenzyl)oxy)phenyl)amino)-3-cyanoquinolin-6-yl)acetamide] | – | – | – | – | – | IC50 (EGFR (L858R) [1]; [3]): > 10000 nM
21 | CC1(C)OC[C@H](COc2cc3ncc(C#N)c(Nc4ccc(OCc5cccc(F)c5)c(Cl)c4)c3cc2NC(=O)CC2CCSS2)O1 (stereo partly drawn) [Example 79, N-(4-((3-Chloro-4-((3-fluorobenzyl)oxy)phenyl)amino)-3-cyano-7-(((S)-2,2-dimethyl-1,3-dioxolan-4-yl)methoxy)quinolin-6-yl)-2-(1,2-dithiolan-3-yl)acetamide] | – | 1 to 99 | – | 1 to 99 | – | –
22 | Cc1ccc(Oc2ccc(Nc3c(C#N)cnc4ccc(NC(=O)CC5CCSS5)cc34)cc2C)cn1 (stereo not shown) [Example 55, N-(3-Cyano-4-((3-methyl-4-((6-methylpyridin-3-yl)oxy)phenyl)amino)quinolin-6-yl)-2-(1,2-dithiolan-3-yl)acetamide] | – | – | – | – | – | IC50 (EGFR (L858R) [1]; [3]): > 10000 nM; IC50 (HER2; read-out: IC50 Activity level HER2, KinaseSeeker, Table 18): > 10000 nM; IC50 (EGFR WT; read-out: IC50 Activity level EGFR WT, KinaseSeeker, Table 18): > 10000 nM
23 | N#Cc1cnc2cc(OC[C@H](O)CO)c(NC(=O)CC3CCSS3)cc2c1Nc1ccc(OCc2cccc(F)c2)c(Cl)c1 (stereo partly drawn) [Example 82, N-(4-((3-Chloro-4-((3-fluorobenzyl)oxy)phenyl)amino)-3-cyano-7-((R)-2,3-dihydroxypropoxy)quinolin-6-yl)-2-(1,2-dithiolan-3-yl)acetamide] | 1 to 99 | 1 to 99 | 100 to 999 | 1 to 99 | 100 to 999 | Kd (EGFR L858R/T790M): > 10 µM; Kd (EGFR S752-I759del): 1 to 99 nM; Kd (EGFR E746-A750del): 1 to 99 nM
24 | N#Cc1cnc2cc(OC[C@@H](O)CO)c(NC(=O)C[C@H]3CCSS3)cc2c1Nc1ccc(OCc2cccc(F)c2)c(Cl)c1 [Example 86, N-(4-((3-Chloro-4-((3-fluorobenzyl)oxy)phenyl)amino)-3-cyano-7-((S)-2,3-dihydroxypropoxy)quinolin-6-yl)-2-(1,2-dithiolan-3S-yl)acetamide] | 1 to 99 | 1 to 99 | 100 to 999 | 1 to 99 | 100 to 999 | Kd (EGFR L858R/T790M): > 10 µM; Kd (EGFR S752-I759del): 1 to 99 nM; Kd (EGFR E746-A750del): 1 to 99 nM
